This is an account of results in ChEMBL document CHEMBL1154700, “3D-QSAR studies on unsaturated 4-azasteroids as human 5alpha-reductase inhibitors: a self organizing molecular field analysis approach” (Eur J Med Chem, 2010).

The structures appear in SMILES notation.

The species entered for the test is Homo sapiens. As to the kind of experiment: Inhibition of human 5 alpha reductase assessed as -log of ratio of IC50 of drug to the IC50 of reference compound.

`C[C@]12C=CC(=O)N[C@@H]1CC[C@@H]1[C@@H]2CC[C@]2(C)[C@@H](C(=O)Sc3ccccn3)CC[C@@H]12`: the -log(RatioIC50) came to 0.
For `CCN(CC)C(=O)[C@H]1CC[C@H]2[C@@H]3CC[C@H]4N(C)C(=O)C=C[C@]4(C)[C@H]3CC[C@]12C` the value was -1.34; for `CC(C)N(C(=O)[C@H]1CC[C@H]2[C@@H]3CC[C@H]4N(C)C(=O)C=C[C@]4(C)[C@H]3CC[C@]12C)C(C)C`, -1; for `CCNC(=O)[C@H]1CC[C@H]2[C@@H]3CC[C@H]4N(C)C(=O)C=C[C@]4(C)[C@H]3CC[C@]12C`, -2.18.
`CNC(=O)[C@H]1CC[C@H]2[C@@H]3CC=C4N(C)C(=O)CC[C@]4(C)[C@H]3CC[C@]12C`: the -log(RatioIC50) was -1.57.
To `CCN(CC)C(=O)[C@H]1CC[C@H]2[C@@H]3CC[C@H]4NC(=O)C=C[C@]4(C)[C@H]3CC[C@]12C` belongs -0.785.
As for `COC(=O)[C@@H](C)[C@H]1CC[C@H]2[C@@H]3CC[C@H]4N(C)C(=O)C=C[C@]4(C)[C@H]3CC[C@]12C`, the -log(RatioIC50) is -2.18.
`CCN(CC)C(=O)[C@H]1CC[C@H]2[C@@H]3CC=C4N(C)C(=O)CC[C@]4(C)[C@H]3CC[C@]12C`: the -log(RatioIC50) is -0.653.
To `COC(=O)[C@@H](C)[C@H]1CC[C@H]2[C@@H]3CC[C@H]4NC(=O)C=C[C@]4(C)[C@H]3CC[C@]12C` belongs -1.48.
Consider `CCOC(=O)/C=C1\CC[C@H]2[C@@H]3CC=C4N(C)C(=O)CC[C@]4(C)[C@H]3CC[C@]12C`, for which the -log(RatioIC50) was -2.
With `CC(C)CC(=O)[C@H]1CC[C@H]2[C@@H]3CC[C@H]4N(C)C(=O)C=C[C@]4(C)[C@H]3CC[C@]12C`, the -log(RatioIC50) was -1.48.
`CC(C)N(C(=O)[C@H]1CC[C@H]2[C@@H]3CC=C4N(C)C(=O)CC[C@]4(C)[C@H]3CC[C@]12C)C(C)C`: the -log(RatioIC50) was -0.204.
For the molecule `CN1C(=O)C=C[C@]2(C)[C@H]3CC[C@]4(C)[C@@H](C(=O)c5ccc[nH]5)CC[C@H]4[C@@H]3CC[C@@H]12`, the -log(RatioIC50) is -1.52.
Take `C[C@]12C=CC(=O)N[C@@H]1CC[C@@H]1[C@@H]2CC[C@]2(C)[C@@H](C(N)=O)CC[C@@H]12`: the -log(RatioIC50) is -1.92.
For `COC(=O)[C@H]1CC[C@H]2[C@@H]3CC[C@H]4NC(=O)C=C[C@]4(C)[C@H]3CC[C@]12C` the value was -1.56; for `CC(C)N(C(=O)[C@H]1CC[C@H]2[C@@H]3CC=C4N(C)C(=O)C=C[C@]4(C)[C@H]3CC[C@]12C)C(C)C`, -1.43.
To `CC(C)N(C(=O)[C@H]1CC[C@H]2[C@@H]3CC[C@H]4NC(=O)C=C[C@]4(C)[C@H]3CC[C@]12C)C(C)C` belongs -0.204; to `CN1C(=O)C=C[C@]2(C)[C@H]3CC[C@]4(C)[C@@H](C(=O)NC(C)(C)C)CC[C@H]4[C@@H]3CC[C@@H]12`, -0.778; to `CCC(C)C(=O)[C@H]1CC[C@H]2[C@@H]3CC[C@H]4N(C)C(=O)C=C[C@]4(C)[C@H]3CC[C@]12C` (stereo partly specified), -1.7.
For `C[C@]12C=CC(=O)N[C@@H]1CC[C@@H]1[C@@H]2CC[C@]2(C)[C@@H](C(=O)c3ccc[nH]3)CC[C@@H]12` the value was -1.
In the case of `CCNC(=O)[C@H]1CC[C@H]2[C@@H]3CC[C@H]4NC(=O)C=C[C@]4(C)[C@H]3CC[C@]12C`, the -log(RatioIC50) is -1.18.
As for `C[C@]12C=CC(=O)N[C@@H]1CC[C@@H]1[C@@H]2CC[C@@]2(C)[C@H]1CC[C@@]21CCCO1`, the -log(RatioIC50) is -3.
For the molecule `CC(C)N(C(=O)[C@H]1CC[C@H]2[C@@H]3CC=C4NC(=O)CC[C@]4(C)[C@H]3CC[C@]12C)C(C)C`, the -log(RatioIC50) was -0.602.
To `CC(C)CC(=O)[C@H]1CC[C@H]2[C@@H]3CC[C@H]4NC(=O)C=C[C@]4(C)[C@H]3CC[C@]12C` belongs -0.255; to `CC(C)(C)NC(=O)[C@H]1CC[C@H]2[C@@H]3CC[C@H]4NC(=O)C=C[C@]4(C)[C@H]3CC[C@]12C`, 0.26.
For the molecule `CN1C(=O)C=C[C@]2(C)[C@H]3CC[C@@]4(C)[C@@H](CC[C@@]45CCCO5)[C@@H]3CC[C@@H]12`, the -log(RatioIC50) was -3.1.
To `CCC(C)C(=O)[C@H]1CC[C@H]2[C@@H]3CC[C@H]4NC(=O)C=C[C@]4(C)[C@H]3CC[C@]12C` (stereo partly specified) belongs -0.881.
To `CN1C(=O)C=C[C@]2(C)[C@H]3CC[C@]4(C)[C@@H](C(=O)NC(C)(C)CC(C)(C)C)CC[C@H]4[C@@H]3CC[C@@H]12` belongs -0.477; to `CC(C)(C)CC(C)(C)NC(=O)[C@H]1CC[C@H]2[C@@H]3CC[C@H]4NC(=O)C=C[C@]4(C)[C@H]3CC[C@]12C`, -0.079.
As for `CCN(CC)C(=O)/C=C/[C@H]1CC[C@H]2[C@@H]3CC[C@H]4N(C)C(=O)CC[C@]4(C)[C@H]3CC[C@]12C`, the -log(RatioIC50) is -0.301.
To `C[C@]12C=CC(=O)N[C@@H]1CC[C@@H]1[C@@H]2CC[C@]2(C)[C@@H](O)CC[C@@H]12` belongs -2.
